The values below come from US20220220068A1 (published 2022).

What is called melting point is the temperature of the solid-liquid transition.

Counter-ions that a name gives are not always drawn.

Compound `CCN(C)/C=N/c1ccc(C(=O)OCc2cccc(C(F)(F)F)c2)c(C)c1C` (as salt: hydrochloride) came in with a melting point of 172 to 176 °C. Then `CN/C(=N/c1cc(C)c(C(=O)OCc2ccccc2C)cc1C)OC`, with 90 to 92 °C.
